# In patent publication US20210346259A1, “Oral Care Compositions Comprising Dicarboxylic Acid” (The Procter & Gamble Company, priority 2020, published 2021):
# Columns and labels:
# [1] = human, 1 %, pH 2.19
# Experimental: The enamel softening method is used to determine the potential of oral care compositions to damage (or not to damage) dental enamel with repeated exposure.
# A core of sound human enamel with a diameter of 3-4 mm was extracted from whole human teeth. The cores were mounted in dental acrylic and the surfaces were ground using 600 grit paper. Increasingly fine lapping papers were then used to polish the surface to a 1μ polish. Samples were sonicated in deionized water for 30 min. Enamel specimens were then rinsed with deionized water and wiped to remove any residual polish. Each enamel specimen was inspected and samples with large cracks or uneven calcification were discarded. […]
# The artificial saliva solution of TABLE 6 was prepared on the day before the experiment. Also on the day before the experiment, the Vickers hardness of each enamel specimen was measured using a hardness indenter at three separate locations spread across the enamel surface. A 50 g load was applied for 10 seconds, and the diagonal lengths of the resulting indents were measured using a 20× magnification objective. […]
# On the day following the cycling experiment, the post-cycling hardness was obtained for each specimen using a similar procedure to that described for the pre-cycling hardness measurements. […] The average change in specimen hardness with respect to treatment and its standard deviation were then determined. […]
# [2] = Slurry pH of enamel softening treatments; assay type: physicochemical; details: treatment as used in enamel softening, Study 1
# Text: The pH of the oral care compositions as described herein can be from about 4 to about 7, from about 4 to about 6, from about 4.5 to about 6.5, or from about 4.5 to about 5.5. The pH of a mouthrinse solution can be determined as the pH of the neat solution. The pH of a dentifrice composition can be determined as a slurry pH, which is the pH of a mixture of the dentifrice composition and water, such as a 1:4, 1:3, or 1:2 mixture of the dentifrice composition and water.
# [3] = Powder Stain Removal Model (PSRM), tea stain + FeCl3; details: pH 7
# Text: The PSRM is a screening technique where hydroxyapatite powder (HAP) is used as a substrate for stain accumulation (see Baig A A; Kozak K M; Cox E R et al; J Clin Dent 2002, 13:19 24). The purpose of this technique was to illustrate and quantify the stain removal properties of chemical agents used in the oral care compositions disclosed herein with respect to pH. Hydroxyapatite powder provides a large surface area to which tea chromogens adsorbed. In addition to the published PSRM a modification of the model was used where tea stain was used in conjunction with Iron Trichloride (FeCl3) to simulate stains that are more resistant to removal. Stains found in the oral cavity commonly contain Fe(III) (Tantbirojn D, Douglas W H et al Eur J Oral Sci 1998; 106,971-976). […] The magnitude of stain removal was quantified by image analysis. […] VWR BDH9234) was added under stirring. Then HAP-powder was added, powder was centrifuged, washed and dried to yield a deeply colored powder. Treatment solutions were prepared for oxalate and pyrophosphate anions. Oxalate solutions (0.34M, 3%) of different pH (4.5, 5.0, 5.5, 7) were obtained by mixing appropriate ratios of potassium oxalate (62.79 g/L Potassium Oxalate Monohydrate in water, pH-7.0) and oxalic acid solution (30.69 g Oxalic Acid/L in water, pH-1.3). Lower concentrations were obtained by further dilution with water. A pyrophosphate solution, equimolar to a 3% Oxalate solution (75.65 g/L Sodium acid pyrophosphate, pH-adjusted with IN NaOH to pH7) was used as comparison. HAP powders were treated with the treatment solutions to investigate their stain removal potential. […] Supernatant was decanted and the pellet was washed twice by adding 25 mL of water, vortexing, centrifuging at 14,000 rpm for 15 mins, and decanting. The twice washed pellet was resuspended in 30 mL water by vortexing for 1 min, then vacuum-filtered (Millipore MF Membrane Filters 8.0 um, 47 mm) to collect the powder. […] Treatments were done in triplicate. A control disk using tea-stained HAP from the same batch treated with water was prepared as well. The color of the laminated samples was measured using a color-calibrated, white-balanced digital camera and RGB values were acquired. […] The light system was equipped with Dedo lights (model number DLH2) equipped with 150 watt, 24V bulbs model number (Xenophot model number HL X64640), positioned about 30 cm apart (measured from the center of the external circular surface of one of the glass lens through which the light exits to the other) and aimed at a 45 degree angle such that the light paths. […] Stain removal was determined as change in L (brightness) vs. untreated stained HAP, calculated as ΔL=(L for treated HAP-L for the untreated stained HAP). […]
# [4] = Powder Stain Removal Model (PSRM), tea stain; details: pH 7
# Experimental: A tea solution was prepared using 8 regular teabags (Lipton Black Tea) in 400 mL boiling water and steeping for 5 min. After letting the tea cool to 50° C. it was filtered through a Nalgene sterile filter (Thermo Scientific Nalgene Rapid flow 75 mm Filter Unit, 0.2SCFA). 10 g Hydroxyapatite Powder (HAP, Bio-Gel HTP-Gel Catalog #130-0421, Bio-Rad Laboratories Hercules, Calif.) was added and the mixture was stirred for 5 min, distributed into 12 50-mL centrifuge tubes and centrifuged for 15 min at 14,000 rpm (Lynx 6000, Thermo Fischer with Lynx F14-14X50CY rotor). Supernatant was decanted, the remaining stained HAP-powder was washed twice with water by adding 25 ml of water, vortexing, centrifuging at 14,000 rpm for 15 mins, and decanting liquid. Centrifuge tubes were placed in a convection oven overnight at 60° C. to dry stained HAP. Once dried, stained HAP was pooled and ground to a fine powder with pestle and mortar and stored in a dry dark place at room temperature.
# HAP powders were treated with the treatment solutions to investigate their stain removal potential. Treatment (20 mL of a 1:4 dilution of treatment solutions above) was added to stained HAP powder (200 mg) in a 50 mL centrifuge, vortexed for 1 min, then centrifuged at 14,000 rpm for 15 min. Supernatant was decanted and the pellet was washed twice by adding 25 mL of water, vortexing, centrifuging at 14,000 rpm for 15 mins, and decanting. […]
# [5] = 0.250 % Active (equimolar to Oxalate Solution)
# [6] = 1.250 % Active (equimolar to Oxalate Solution)
# [7] = 2.5200 % Active (equimolar to Oxalate Solution)
# [8] = 7.56.00 % Active (equimolar to Oxalate Solution)
Structure (SMILES),Δ SMH (change in surface microhardness) [1],Slurry pH [2],"Tea Stain + FeCl3 (ΔL) [3, 5]","Tea Stain + FeCl3 (ΔL) [3, 6]","Tea Stain + FeCl3 (ΔL) [3, 7]","Tea Stain + FeCl3 (ΔL) [3, 8]","Tea Stain (ΔL) [4, 5]","Tea Stain (ΔL) [4, 6]","Tea Stain (ΔL) [4, 7]","Tea Stain (ΔL) [4, 8]"
"O=C(O)CC(O)(CC(=O)O)C(=O)O [1% Citric Acid, citric acid]",−175.68,2.19,,,,,,,,
"O=P([O-])(O)OP(=O)([O-])O.[Na+].[Na+] [Pyrophosphate Solution, Sodium acid pyrophosphate]",,,−0.97,0.02,0.77,2.88,5.16,5.97,7.88,9.85
